Source: paper PMC6087734, “Loss of S100A1 expression leads to Ca^2+ release potentiation in mutant mice with disrupted CaM and S100A1 binding to CaMBD2 of RyR1” (Physiological Reports, 2018)
Entries after “also recorded” stand apart in the source; their conditions may differ. Residues, ends and D or L forms follow the SMILES beside them.

T1: S100A1 (recombinant human 15N-labeled, Ca2+-loaded) (Homo sapiens, UniProt P23297)
T1 construct: made in house
T1 sequence (P23297 1-94): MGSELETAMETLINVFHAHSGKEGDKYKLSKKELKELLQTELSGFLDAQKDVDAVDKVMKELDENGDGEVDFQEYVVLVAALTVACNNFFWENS


Assays:
CaM = settings: ref Lau et al. 2014, cited from earlier work; for CaM binding, in words: isothermal calorimetry, rabbit RyR1 peptides; for affinity sequence of CaM for the CaMBDs, in words: ITC data
From the text: There is substantial evidence that CaM and S100A1 may bind to multiple sites within the RyR1. […] Given the affinity of S100A1 for the CaMBDs, it is likely that the observed RyR1 re ...

[1] = biological target: T1, S100A1 (recombinant human 15N-labeled, Ca2+-loaded); test: ITC of S100A1 association with RyR1 CaMBD peptides; assay type: binding; settings: for S100A1 binding, in words: 10 mmol/L Ca2+; for N (sites) / Kd / ΔG / ΔH: 37°C, two-site fit, mean ± SD, n = 3; for difference in affinity between the tight and weak peptide-binding site: ratio of KD at the two sites on S100A1 dimer
Description: All peptides were synthesized using […] peptide synthesis and their purity was determined to be >95% by high pressure liquid chromatography and mass spectrometry (Biosynthesis Inc., Lewisville, TX or GenScript, Piscataway, NJ). Three peptides derived from human RyR1 sequence were synthesized: CaMBD2, residues 3614‐3640, […]; CaMBD1, residues 1975‐1999, […]; and CaMBD3, residues 4303‐4326, […]. As they are internal peptides the C‐terminus was […] and N‐terminus was acetylated to neutralize the charged ends. The peptides stock were made in D6‐DMSO and their concentration were determined by quantitative amino acid analysis (Biosynthesis Inc., Lewisville, TX) and/or determined using the extinction coefficient for the methyl ester of N‐acetyl tryptophan, ε280 = 5600 cm^−1M^−1.
Expression and purification (>95% by SDS‐PAGE) of recombinant human ^15N‐labeled S100A1 was performed as previous described (Melville et al. 2017b). The concentrations of S100A1 stock solutions were determined using the Bio‐Rad Protein Assay (Bio‐Rad Inc., Hercules, CA) using a known concentration of BSA as the standard. Concentrations are given in S100A1 monomer concentration except where indicated.
Heat changes during the titration of each CaMBD peptide into Ca^2+‐S100A1 were measured using a VP‐ITC titration microcalorimeter (MicroCal, Inc., Northhampton, MA) as done previously (Wilder et al. 2003). All solutions were degassed under vacuum and equilibrated at 37°C prior to titration. For each titration the sample cell (1.4 mL) contained 10 mmol/L TES, pH 7.2, 15 mmol/L NaCl, and 10 mmol/L CaCl2, 0.5 mmol/L TCEP, <5% D6‐DMSO (from peptide stocks or equivalent D6‐DMSO added to controls), and 0.04 mmol/L CaMBD peptide, while the reference cell contained water. Upon equilibration, 0.20–0.35 mmol/L S100A1 (dimer concentration) prepared in the same buffer without peptide but equivalent D6‐DMSO was injected using the default injection rate with a time interval between each injection to allow the sample to return to baseline. The resulting titration curves were corrected for protein‐free buffer control.
Images were collected and evaluated using the same settings and enhancing parameters so that all images could be directly compared. Line‐scan images were analyzed using LSM examiner (Carl Zeiss, Jena, DE). Calculation of AP‐induced Ca^2+ signals were conducted using Origin Pro 8 (OriginLab Corporation, Northampton, MA, USA) and SPSS for Windows ver. 24.0 (SPSS Inc., Chicago, IL). Summary data were reported as mean ± SD. Normal distribution of data was assessed using the Kolmogorov–Smirnov test. Unpaired two sample Student's t‐test was used to test for differences between the means of the indo 1‐resting values and peak AP‐induced Ca^2+ transients from two different samples. ITC results were background buffer subtracted and analyzed using the Origin for ITC software (MicroCal, Northampton, MA) and fit using two‐site fitting model (Freire et al. 1990). Differences were considered significant when P < 0.05.

[2] = biological target: RyR1 CaMBD1 peptide (site 1) (Homo sapiens); test: ITC
[3] = biological target: RyR1 CaMBD1 peptide (site 2) (Homo sapiens); test: ITC
[4] = biological target: RyR1 CaMBD2 peptide (site 1) (Homo sapiens); test: ITC
[5] = biological target: RyR1 CaMBD2 peptide (site 2) (Homo sapiens); test: ITC
[6] = biological target: RyR1 CaMBD3 peptide (site 1) (Homo sapiens); test: ITC
[7] = biological target: RyR1 CaMBD3 peptide (site 2) (Homo sapiens); test: ITC
RyR1 = settings: in vitro FRET; ref Rebbeck et al. 2016; cited from earlier work
From the text: In fast‐type skeletal muscle the intracellular concentration of S100A1 was reported to be ~3 μmol/L (Haimoto and Kato 1987; Zimmer et al. 1991), with total intracellular concentration of CaM being about 5 μmol/L (Robertson et al. 1981).

[8] = peptide-binding site 1, ITC VP-ITC, 10 mmol/L TES pH 7.2, 15 mmol/L NaCl, 10 mmol/L CaCl2, 0.5 mmol/L TCEP, <5% D6-DMSO, 0.04 mmol/L peptide in cell, 0.20-0.35 mmol/L S100A1 (dimer) injected
[9] = peptide-binding site 1, ITC, pH 7.2, 10 mmol/L CaCl2
[10] = peptide-binding site 2, ITC, pH 7.2, 10 mmol/L CaCl2

Molecule	CaM binding, in words (CaM)	N (sites) [1, 8]	Kd [1, 9]	ΔG [1, 9]	ΔH [1, 9]	Kd [1, 10]	N (sites) [1, 10]	ΔG [1, 10]	ΔH [1, 10]	difference in affinity between the tight and weak peptide-binding site [1]	affinity sequence of CaM for the CaMBDs, in words (CaM)	further results
rCaMBD2: peptide from rabbit RyR1, residues 1975‐1999 (as printed), Lau et al. 2014 (SRYALLMRAFTMSAAETARRTREFR; UniProt P11716 1975-1999, looked up, fragment) [reference compound]	CaM can bind											
CC(=O)N[C@@H](CCCNC(=N)N)C(=O)N[C@@H](C)C(=O)N[C@@H](CC(C)C)C(=O)N[C@@H](CCCNC(=N)N)C(=O)NCC(=O)N[C@@H](CC(C)C)C(=O)N[C@@H](CO)C(=O)N[C@@H](Cc1ccc(O)cc1)C(=O)N[C@@H](CCCNC(=N)N)C(=O)N[C@@H](CO)C(=O)N[C@@H](CC(C)C)C(=O)N[C@@H](CCCNC(=N)N)C(=O)N[C@@H](CCCNC(=N)N)C(=O)N[C@@H](CCCNC(=N)N)C(=O)N[C@H](C(=O)N[C@@H](CCCNC(=N)N)C(=O)N[C@@H](CCCNC(=N)N)C(=O)N[C@@H](CC(C)C)C(=O)N[C@@H](CCCNC(=N)N)C(=O)N[C@@H](CCCNC(=N)N)C(=O)N[C@@H](CC(C)C)C(=O)N[C@H](C(=O)N[C@@H](C)C(=O)N[C@@H](CCCNC(=N)N)C(N)=O)[C@@H](C)O)C(C)C [CaMBD3] (Ac-RALRGLSYRSLRRRVRRLRRLTAR-NH2)		1.79 ± 0.08	0.0089 ± 0.011 µM	-11.9 ± 1.2 kcal/mol	-3.6 ± 0.7 kcal/mol	6.7 µM	1.27 ± 0.07	-7.4 ± 0.2 kcal/mol	-6.1 ± 0.9 kcal/mol	755 fold	CaMBD2 > CaMBD3 > CaMBD1	S100A1 binding, in words ([1]; ITC): binds with different affinities; also recorded: tightest S100A1 binding
CSCC[C@H](NC(=O)[C@H](CCCNC(=N)N)NC(=O)[C@H](Cc1ccccc1)NC(=O)[C@H](CS)NC(=O)[C@H](C)NC(=O)[C@@H](NC(=O)[C@@H](NC(=O)[C@H](C)NC(=O)[C@H](CCCNC(=N)N)NC(=O)[C@H](CCCNC(=N)N)NC(=O)[C@H](CCCNC(=N)N)NC(=O)[C@H](CCC(N)=O)NC(=O)[C@H](CCCCN)NC(=O)[C@H](CO)NC(=O)[C@H](CC(C)C)NC(=O)[C@H](CC(C)C)NC(=O)[C@H](CCCCN)NC(=O)[C@H](Cc1c[nH]cn1)NC(=O)[C@H](Cc1c[nH]c2ccccc12)NC(=O)[C@@H](NC(=O)[C@H](C)NC(=O)[C@H](CCCCN)NC(=O)[C@H](CCCCN)NC(=O)[C@H](CO)NC(=O)[C@H](CCCCN)NC(C)=O)C(C)C)C(C)C)C(C)C)C(=O)N[C@H](C(=O)N1CCC[C@H]1C(N)=O)[C@@H](C)O [CaMBD2] (Ac-KSKKAVWHKLLSKQRRRAVVACFRMTP-NH2)		0.78 ± 0.09	0.146 ± 0.0239 µM	-9.7 ± 0.1 kcal/mol	-11.4 ± 0.2 kcal/mol	17 µM	0.51 ± 0.15	-6.8 ± 0.1 kcal/mol	-10.3 ± 3.0 kcal/mol	114 fold	CaMBD2 > CaMBD3 > CaMBD1	
rCaMBD3: peptide from rabbit RyR1, residues 4295‐4325, Lau et al. 2014 (RLAAAAARALRGLSYRSLRRRVRRLRRLTAR; UniProt P11716 4295-4325, looked up, fragment) [reference compound]	CaM can bind											
CC[C@H](C)[C@H](NC(=O)[C@H](CC(C)C)NC(=O)[C@H](CC(C)C)NC(=O)CNC(=O)[C@H](Cc1ccc(O)cc1)NC(=O)[C@H](CCCNC(=N)N)NC(=O)[C@H](CO)NC(C)=O)C(=O)N[C@@H](CCCCN)C(=O)N[C@@H](C)C(=O)N[C@@H](Cc1ccccc1)C(=O)N[C@@H](CO)C(=O)N[C@@H](CCSC)C(=O)N[C@H](C(=O)N[C@@H](C)C(=O)N[C@@H](C)C(=O)N[C@@H](CCC(=O)O)C(=O)N[C@H](C(=O)N[C@@H](C)C(=O)N[C@@H](CCCNC(=N)N)C(=O)N[C@@H](CCCNC(=N)N)C(=O)N[C@H](C(=O)N[C@@H](CCCNC(=N)N)C(=O)N[C@@H](CCC(=O)O)C(=O)N[C@@H](Cc1ccccc1)C(=O)N[C@@H](CCCNC(=N)N)C(N)=O)[C@@H](C)O)[C@@H](C)O)[C@@H](C)O [CaMBD1] (Ac-SRYGLLIKAFSMTAAETARRTREFR-NH2)		1.14 ± 0.10	1.3 ± 0.284 µM	-8.4 ± 0.1 kcal/mol	-4.5 ± 0.7 kcal/mol	21 µM	0.75 ± 0.07	-6.7 ± 0.2 kcal/mol	-10.8 ± 0.4 kcal/mol	16 fold	CaMBD2 > CaMBD3 > CaMBD1	S100A1 binding, in words ([1]; ITC): binds with different affinities; also recorded: weakest affinity
rCaMBD1: peptide from rabbit RyR1, residues 3614‐3640 (as printed), Lau et al. 2014 (KSKKAVWHKLLSKQRRRAVVACFRMTP; UniProt P11716 3614-3640, looked up, fragment) [reference compound]	CaM can bind											
S100A1, P23297 (protein) MGSELETAMETLINVFHAHSGKEGDKYKLSKKELKELLQTELSGFLDAQKDVDAVDKVMKELDENGDGEVDFQEYVVLVAALTVACNNFFWENS												Kd [2]: 1.3 µM; Kd [3]: 21 µM; Kd [4]: 0.146 µM; Kd [5]: 17 µM; Kd [6]: 0.0089 µM; Kd [7]: 6.7 µM
S100A1: 21 kDa dimeric molecule characterized by its EF‐hand Ca^2+‐binding motifs (protein, UniProt P23297 1-94, looked up) Protein S100-A1: MGSELETAMETLINVFHAHSGKEGDKYKLSKKELKELLQTELSGFLDAQKDVDAVDKVMKELDENGDGEVDFQEYVVLVAALTVACNNFFWENS												S100A1 concentration required for RyR1 modulation, in words (RyR1): high unphysiological (micromolar) concentration
